Source: patent US11725012B2, “Imidazo[1,5-a]pyrazine derivatives as PI3K δ inhibitors” (priority 2016, dated 2023)

Assays:
Type in all cases: biochemical
[1] = target: recombinant PI3K (p110δ/p85α) (Homo sapiens, UniProt O00329); assay: PI3Kδ ADP-Glo kinase assay; settings: read-out: PI3Kδ Enzyme activity IC50
Procedure: Compounds disclosed herein were tested for inhibition of PI3Kδ kinase activity using commercial ADP-Glo™ Kinase Assay (Promega Corporation) and following the manufacture's instruction. Briefly, recombinant PI3K (p110δ/p85α) enzyme, lipid kinase substrate and a serial dilution of compounds disclosed herein were incubated for 0.5 hr at room temperature. ATP was added to initiate the kinase reaction. After incubation for 1 hr at room temperature, ADP-Glo™ reagent was added to terminate the kinase reaction and deplete the remaining ATP. After incubation for 1 hr at room temperature, kinase detection reagent was added to simultaneously convert ADP to ATP and allow the newly synthesized ATP to be measured using a luciferase/luciferin reaction. After incubation for 0.5 hr at room temperature, the luminescence generated was measured on a PHERAstar FS plate reader (BMG LABTECH), The residual enzyme activity in presence of increasing concentrations of compounds was calculated based on the luminescence. The IC50 for each compound was derived from fitting the data to the four-parameter logistic equation by Graphpad Prism software.

[2] = target: PI3K (p110γ) (Homo sapiens, UniProt P48736); assay: PI3Kγ ADP-Glo kinase assay; settings: for IC50: read-out: PI3Kγ Enzyme activity IC50; for inhibition at 0.5 µM: read-out: PI3Kγ max inhibition (%) at 0.5 μM
[3] = target: PI3K (p110β/p85α) (Homo sapiens, UniProt P42338); assay: PI3Kβ ADP-Glo kinase assay; settings: for IC50: read-out: PI3Kβ Enzyme activity IC50
[4] = target: recombinant PI3K (p110α/p85α) (Homo sapiens, UniProt P42336); assay: PI3Kα ADP-Glo kinase assay; settings: for IC50: read-out: PI3Kα Enzyme activity IC50; for inhibition at 0.5 µM: read-out: PI3Kα max inhibition (%) at 0.5 μM
Sequence of recombinant PI3K (p110α/p85α) (P42336 whole entry): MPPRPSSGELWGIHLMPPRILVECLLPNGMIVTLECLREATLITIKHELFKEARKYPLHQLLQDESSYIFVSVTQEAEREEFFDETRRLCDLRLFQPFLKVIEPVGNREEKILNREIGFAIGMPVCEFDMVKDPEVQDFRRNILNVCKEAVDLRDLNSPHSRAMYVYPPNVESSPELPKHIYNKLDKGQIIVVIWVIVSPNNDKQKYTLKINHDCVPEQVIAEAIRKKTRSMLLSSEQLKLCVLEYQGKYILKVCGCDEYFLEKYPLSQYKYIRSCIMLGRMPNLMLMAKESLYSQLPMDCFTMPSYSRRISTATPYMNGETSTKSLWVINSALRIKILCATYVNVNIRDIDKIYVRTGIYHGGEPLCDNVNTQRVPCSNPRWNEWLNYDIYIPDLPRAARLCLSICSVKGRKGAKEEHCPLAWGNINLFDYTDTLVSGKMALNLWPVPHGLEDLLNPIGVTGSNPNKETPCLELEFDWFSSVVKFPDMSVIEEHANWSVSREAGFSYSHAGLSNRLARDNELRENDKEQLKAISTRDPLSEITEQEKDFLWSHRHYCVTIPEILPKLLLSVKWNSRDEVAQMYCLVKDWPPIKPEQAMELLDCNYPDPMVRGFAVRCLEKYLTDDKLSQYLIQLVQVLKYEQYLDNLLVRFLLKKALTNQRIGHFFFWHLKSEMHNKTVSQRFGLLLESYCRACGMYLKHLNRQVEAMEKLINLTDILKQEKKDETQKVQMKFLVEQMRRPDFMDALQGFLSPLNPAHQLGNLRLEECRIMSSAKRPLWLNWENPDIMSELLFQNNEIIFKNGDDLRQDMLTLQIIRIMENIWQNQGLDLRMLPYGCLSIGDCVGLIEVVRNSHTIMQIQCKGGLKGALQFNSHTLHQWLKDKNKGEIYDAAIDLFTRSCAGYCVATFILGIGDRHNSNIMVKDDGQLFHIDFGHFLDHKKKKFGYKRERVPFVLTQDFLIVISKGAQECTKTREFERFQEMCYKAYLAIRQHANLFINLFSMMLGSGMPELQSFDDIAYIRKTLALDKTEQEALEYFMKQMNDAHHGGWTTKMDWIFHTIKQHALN
Sequence of recombinant PI3K (p110α/p85α) (P27986 whole entry partner): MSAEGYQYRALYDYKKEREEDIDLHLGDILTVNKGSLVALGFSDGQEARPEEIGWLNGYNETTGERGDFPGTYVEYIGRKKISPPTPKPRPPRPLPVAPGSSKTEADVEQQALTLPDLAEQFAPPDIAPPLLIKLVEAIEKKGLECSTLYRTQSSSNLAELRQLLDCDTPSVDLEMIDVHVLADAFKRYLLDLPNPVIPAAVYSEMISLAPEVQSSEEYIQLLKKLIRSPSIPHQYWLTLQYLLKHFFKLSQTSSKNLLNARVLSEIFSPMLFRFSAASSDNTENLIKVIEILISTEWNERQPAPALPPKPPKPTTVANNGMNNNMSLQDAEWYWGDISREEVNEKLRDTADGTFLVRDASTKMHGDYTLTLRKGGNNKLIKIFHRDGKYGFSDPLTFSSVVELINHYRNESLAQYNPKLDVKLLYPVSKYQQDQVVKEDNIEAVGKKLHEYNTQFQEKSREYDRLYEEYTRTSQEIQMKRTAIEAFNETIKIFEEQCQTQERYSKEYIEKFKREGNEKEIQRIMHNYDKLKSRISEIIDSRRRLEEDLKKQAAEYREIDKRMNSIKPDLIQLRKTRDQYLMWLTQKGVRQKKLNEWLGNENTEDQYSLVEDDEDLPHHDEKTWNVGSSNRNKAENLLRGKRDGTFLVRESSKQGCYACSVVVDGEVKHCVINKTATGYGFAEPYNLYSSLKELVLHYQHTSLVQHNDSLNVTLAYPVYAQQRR

Sequence of PI3K (p110β/p85α) (P42338 whole entry): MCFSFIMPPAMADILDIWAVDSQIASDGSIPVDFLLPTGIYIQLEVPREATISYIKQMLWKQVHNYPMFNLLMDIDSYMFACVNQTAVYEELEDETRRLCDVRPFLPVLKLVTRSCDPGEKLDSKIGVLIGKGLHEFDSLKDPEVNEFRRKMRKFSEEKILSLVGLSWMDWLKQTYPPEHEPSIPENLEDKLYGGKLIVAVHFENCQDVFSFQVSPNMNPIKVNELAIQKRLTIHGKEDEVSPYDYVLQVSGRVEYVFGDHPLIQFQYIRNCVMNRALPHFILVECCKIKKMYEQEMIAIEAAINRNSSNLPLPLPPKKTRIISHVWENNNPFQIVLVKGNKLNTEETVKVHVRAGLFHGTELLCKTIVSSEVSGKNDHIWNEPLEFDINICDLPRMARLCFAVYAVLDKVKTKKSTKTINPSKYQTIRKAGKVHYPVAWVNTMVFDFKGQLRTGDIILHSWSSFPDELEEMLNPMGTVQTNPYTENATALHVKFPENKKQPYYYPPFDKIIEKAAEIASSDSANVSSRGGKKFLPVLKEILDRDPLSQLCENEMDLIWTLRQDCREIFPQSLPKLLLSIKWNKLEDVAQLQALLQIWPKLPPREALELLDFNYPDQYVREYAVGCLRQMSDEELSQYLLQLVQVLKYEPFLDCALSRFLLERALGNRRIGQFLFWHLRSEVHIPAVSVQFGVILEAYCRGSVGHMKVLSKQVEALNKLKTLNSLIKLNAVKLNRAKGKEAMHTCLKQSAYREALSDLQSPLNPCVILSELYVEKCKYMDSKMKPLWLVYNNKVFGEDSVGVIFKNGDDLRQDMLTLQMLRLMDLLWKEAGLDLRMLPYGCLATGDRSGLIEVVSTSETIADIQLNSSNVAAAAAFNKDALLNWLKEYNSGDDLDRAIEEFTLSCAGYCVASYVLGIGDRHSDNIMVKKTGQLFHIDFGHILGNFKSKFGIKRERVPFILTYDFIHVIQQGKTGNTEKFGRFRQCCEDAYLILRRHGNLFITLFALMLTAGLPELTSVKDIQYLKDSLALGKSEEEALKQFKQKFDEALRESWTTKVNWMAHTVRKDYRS
Sequence of PI3K (p110β/p85α) (P27986 whole entry partner): as the sequence (P27986 whole entry partner) above
Sequence of recombinant PI3K (p110δ/p85α) (O00329 whole entry): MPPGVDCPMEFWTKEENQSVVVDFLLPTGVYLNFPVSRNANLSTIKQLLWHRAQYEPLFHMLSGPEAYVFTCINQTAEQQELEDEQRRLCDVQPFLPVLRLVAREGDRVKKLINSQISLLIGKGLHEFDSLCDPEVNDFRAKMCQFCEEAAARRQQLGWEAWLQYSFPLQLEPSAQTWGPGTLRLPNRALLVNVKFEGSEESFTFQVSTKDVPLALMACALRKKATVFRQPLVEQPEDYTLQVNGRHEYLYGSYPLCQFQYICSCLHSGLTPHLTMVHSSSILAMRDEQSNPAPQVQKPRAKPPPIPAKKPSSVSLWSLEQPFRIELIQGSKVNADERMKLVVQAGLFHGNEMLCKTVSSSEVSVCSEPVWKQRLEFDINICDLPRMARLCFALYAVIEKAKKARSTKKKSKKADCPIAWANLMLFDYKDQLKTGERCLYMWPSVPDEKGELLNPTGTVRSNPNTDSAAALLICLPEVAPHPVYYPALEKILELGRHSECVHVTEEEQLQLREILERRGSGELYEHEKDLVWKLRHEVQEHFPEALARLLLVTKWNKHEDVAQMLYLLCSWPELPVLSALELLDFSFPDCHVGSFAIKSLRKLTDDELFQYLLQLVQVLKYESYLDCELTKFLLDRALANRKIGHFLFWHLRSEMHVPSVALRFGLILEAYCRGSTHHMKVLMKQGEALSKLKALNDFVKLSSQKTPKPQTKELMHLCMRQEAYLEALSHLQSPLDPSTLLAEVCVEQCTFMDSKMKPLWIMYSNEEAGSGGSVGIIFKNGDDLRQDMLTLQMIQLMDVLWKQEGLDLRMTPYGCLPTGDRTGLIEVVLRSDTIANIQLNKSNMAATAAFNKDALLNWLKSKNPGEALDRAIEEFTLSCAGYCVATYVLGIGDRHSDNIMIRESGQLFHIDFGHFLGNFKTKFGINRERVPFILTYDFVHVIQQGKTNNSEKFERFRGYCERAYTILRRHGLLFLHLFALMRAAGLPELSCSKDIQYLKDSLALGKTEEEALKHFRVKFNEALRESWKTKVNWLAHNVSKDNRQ
Sequence of recombinant PI3K (p110δ/p85α) (P27986 whole entry partner): as the sequence (P27986 whole entry partner) above
Sequence of PI3K (p110γ) (P48736 whole entry): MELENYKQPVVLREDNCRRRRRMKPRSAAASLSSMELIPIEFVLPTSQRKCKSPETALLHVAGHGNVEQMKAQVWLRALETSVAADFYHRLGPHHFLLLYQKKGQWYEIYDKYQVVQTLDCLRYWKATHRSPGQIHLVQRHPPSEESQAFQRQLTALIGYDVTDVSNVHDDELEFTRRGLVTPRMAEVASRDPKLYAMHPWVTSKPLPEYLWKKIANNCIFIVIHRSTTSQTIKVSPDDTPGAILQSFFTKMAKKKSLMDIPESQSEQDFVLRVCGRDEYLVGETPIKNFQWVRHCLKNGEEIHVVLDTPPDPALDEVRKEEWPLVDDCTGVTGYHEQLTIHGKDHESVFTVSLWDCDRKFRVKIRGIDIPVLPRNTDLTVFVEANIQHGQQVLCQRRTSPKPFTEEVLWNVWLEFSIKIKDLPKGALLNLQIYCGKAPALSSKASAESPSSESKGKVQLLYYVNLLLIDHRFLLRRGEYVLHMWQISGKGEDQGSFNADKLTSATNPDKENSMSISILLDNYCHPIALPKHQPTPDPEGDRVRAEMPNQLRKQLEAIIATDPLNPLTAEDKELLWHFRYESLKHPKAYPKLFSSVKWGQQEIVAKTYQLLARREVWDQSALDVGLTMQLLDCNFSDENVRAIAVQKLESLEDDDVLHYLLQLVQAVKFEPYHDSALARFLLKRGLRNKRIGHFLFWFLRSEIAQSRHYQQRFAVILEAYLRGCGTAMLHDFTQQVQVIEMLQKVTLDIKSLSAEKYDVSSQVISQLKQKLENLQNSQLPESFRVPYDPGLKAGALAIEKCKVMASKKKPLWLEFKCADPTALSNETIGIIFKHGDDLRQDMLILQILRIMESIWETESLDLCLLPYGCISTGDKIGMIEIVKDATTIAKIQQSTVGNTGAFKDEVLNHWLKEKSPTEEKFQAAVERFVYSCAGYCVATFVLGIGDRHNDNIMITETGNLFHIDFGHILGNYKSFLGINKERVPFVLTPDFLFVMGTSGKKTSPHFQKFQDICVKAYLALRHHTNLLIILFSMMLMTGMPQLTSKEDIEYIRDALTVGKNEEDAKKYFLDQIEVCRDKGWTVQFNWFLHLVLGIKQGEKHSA

Row | Compound | IC50 [1] | further results
1 | CC(C)Oc1c(C(C)c2nc(Cl)c3c(N)nccn23)cc(Cl)c(F)c1-c1ccc(C(=O)O)nc1 (single isomer, unassigned) [Compound 18B] | 26 nM | 
2 | CC(C)Oc1c(C(C)c2nc(Cl)c3c(N)nccn23)cc(Cl)c(F)c1C1CNC(=O)C1 (single isomer, unassigned) [Compound 48A, 4-(3-(1-(8-amino-1-chloroimidazo[1,5-a]pyrazin-3-yl)ethyl)-5-chloro-6-fluoro-2-isopropoxyphenyl)pyrrolidin-2-one] | 0.4 nM | IC50 [2]: 800 nM; IC50 [3]: 440 nM; IC50 [4]: 4800 nM
3 | CC(C)Oc1c(C(C)c2nc(Cl)c3c(N)nccn23)cc(Cl)c(F)c1C1CNC(=O)C1 (single isomer, unassigned) [Compound 48C, 4-(3-(1-(8-amino-1-chloroimidazo[1,5-a]pyrazin-3-yl)ethyl)-5-chloro-6-fluoro-2-isopropoxyphenyl)pyrrolidin-2-one] | 160 nM | 
4 | CC(C)Oc1c(C(C)c2nc(Cl)c3c(N)nccn23)cc(Cl)c(F)c1C1CNC(=O)C1 (single isomer, unassigned) [Compound 48D, 4-(3-(1-(8-amino-1-chloroimidazo[1,5-a]pyrazin-3-yl)ethyl)-5-chloro-6-fluoro-2-isopropoxyphenyl)pyrrolidin-2-one] | 6.8 nM | 
5 | CCOc1c(C(C)c2nc(Cl)c3c(N)nccn23)cc(Cl)c(F)c1C1CCOCC1 (single isomer, unassigned) [Compound 49A, 1-chloro-3-(1-(5-chloro-2-ethoxy-4-fluoro-3-(tetrahydro-2H-pyran-4-yl)phenyl)ethyl)imidazo[1,5-a]pyrazin-8-amine] | 0.49 nM | IC50 [2]: 440 nM; IC50 [3]: 260 nM; IC50 [4]: 2100 nM
6 | CCOc1c(C(C)c2nc(Cl)c3c(N)nccn23)cc(Cl)c(F)c1C1CCOCC1 (single isomer, unassigned) [Compound 49B, 1-chloro-3-(1-(5-chloro-2-ethoxy-4-fluoro-3-(tetrahydro-2H-pyran-4-yl)phenyl)ethyl)imidazo[1,5-a]pyrazin-8-amine] | 26 nM | 
7 | CCOc1c(C(C)c2nc(Cl)c3c(N)nccn23)cc(Cl)c(C)c1N1CCOCC1 (single isomer, unassigned) [Compound 51B, 1-chloro-3-(1-(5-chloro-2-ethoxy-4-methyl-3-morpholinophenyl)ethyl)imidazo[1,5-a]pyrazin-8-amine] | 320 nM | 
8 | Cc1nc(C(C)c2cc(Cl)c(F)c(-c3ccc(C#N)nc3)c2OC(C)C)n2ccnc(N)c12 (single isomer, unassigned) [Compound 59B, 5-(3-(1-(8-amino-1-methylimidazo[1,5-a]pyrazin-3-yl)ethyl)-5-chloro-6-fluoro-2-isopropoxyphenyl)picolinonitrile] | 240 nM | 
9 | COc1c(C(C)c2ncc3c(N)nccn23)cc(Cl)c(C)c1-c1cccnc1 (stereo not drawn) [Compound 1, 3-(1-(5-chloro-2-methoxy-4-methyl-3-(pyridin-3-yl)phenyl)ethyl)imidazo[1,5-a]pyrazine-8-amine] | 150 nM | inhibition at 0.5 µM [2]: -27%; inhibition at 0.5 µM ([3]; read-out: PI3Kβ max inhibition (%) at 0.5 μM): 6%
10 | COc1c(C(C)c2nc(Br)c3c(N)nccn23)cc(Cl)c(C)c1-c1cccnc1 (stereo not drawn) [Compound 2, 1-bromo-3-(1-(5-chloro-2-methoxy-4-methyl-3-(pyridin-3-yl)phenyl)ethyl)imidazo[1,5-a]pyrazin-8-amine] | 1.5 nM | inhibition at 0.5 µM [2]: 37%; IC50 [4]: 560 nM
11 | COc1c(C(C)c2nc(-c3ccccc3)c3c(N)nccn23)cc(Cl)c(C)c1-c1cccnc1 (stereo not drawn) [Compound 3, 3-(1-(5-chloro-2-methoxy-4-methyl-3-(pyridin-3-yl)phenyl)ethyl)-1-phenylimidazo[1,5-a]pyrazin-8-amine] | 150 nM | 
12 | COc1c(C(C)c2nc(-c3cccc(O)c3)c3c(N)nccn23)cc(Cl)c(C)c1-c1cccnc1 (stereo not drawn) [Compound 4, 3-(8-amino-3-(1-(5-chloro-2-methoxy-4-methyl-3-(pyridin-3-yl)phenyl)ethyl)imidazo[1,5-a]pyrazin-1-yl)phenol] | 7.5 nM | inhibition at 0.5 µM [2]: 9%; inhibition at 0.5 µM [4]: 20%
13 | COc1c(C(C)c2nc(Br)c3c(N)ncc(Cl)n23)cc(Cl)c(C)c1-c1cccnc1 (stereo not drawn) [Compound 5, 1-bromo-5-chloro-3-(1-(5-chloro-2-methoxy-4-methyl-3-(pyridin-3-yl)phenyl)ethyl) imidazo[1,5-a]pyrazin-8-amine] | 18 nM | inhibition at 0.5 µM [2]: 44%; inhibition at 0.5 µM [4]: 19%
14 | COc1c(C(C)c2nc(Cl)c3c(N)nccn23)cc(Cl)c(C)c1-c1cccnc1 (stereo not drawn) [Compound 6, 1-chloro-3-(1-(5-chloro-2-methoxy-4-methyl-3-(pyridin-3-yl)phenyl)ethyl)imidazo[1,5-a]pyrazin-8-amine] | 2 nM | inhibition at 0.5 µM [2]: 52%; inhibition at 0.5 µM [4]: 34%
15 | CCOc1c(C(C)c2nc(Br)c3c(N)nccn23)cc(Cl)c(C)c1-c1ccc(C)nc1 (stereo not drawn) [Compound 7, 1-bromo-3-(1-(5-chloro-2-ethoxy-4-methyl-3-(6-methylpyridin-3-yl)phenyl)ethyl) imidazo[1,5-a]pyrazin-8-amine] | 1.9 nM | IC50 [2]: 200 nM; IC50 [4]: 420 nM
16 | CCOc1c([C@@H](C)c2nc(Cl)c3c(N)nccn23)cc(Cl)c(C)c1-c1ccc(C)nc1 [Compound 8B] | 170 nM | 

Row | Compound | IC50 [1] | further results
17 | CCOc1c(C(C)c2nc(Br)c3c(N)nccn23)cc(Cl)c(C)c1-c1ccc(Cl)cc1 (stereo not drawn) [Compound 9, 1-bromo-3-(1-(4′,5-dichloro-2-ethoxy-6-methyl-[1,1′-biphenyl]-3-yl)ethyl)imidazo[1,5-a]pyrazin-8-amine] | 100 nM | 
18 | CC(C)Oc1c([C@@H](C)c2nc(Cl)c3c(N)nccn23)cc(Cl)c(F)c1-c1ccc(C(=O)N(C)C)nc1 [Compound 16B] | 62 nM | 
19 | CC(C)Oc1c([C@@H](C)c2nc(Cl)c3c(N)nccn23)cc(Cl)c(F)c1-c1ccc(C(N)=O)nc1 [Compound 17A] | 91 nM | 
20 | COc1c(C(C)c2nc(Br)c3c(N)nccn23)cc(Cl)c(C)c1-c1c(C)noc1C (stereo not drawn) [Compound 21, 1-bromo-3-(1-(5-chloro-3-(3,5-dimethylisoxazol-4-yl)-2-methoxy-4-methylphenyl)ethyl)imidazo[1,5-a]pyrazin-8-amine] | 3.3 nM | IC50 [2]: 1500 nM; IC50 [4]: 2000 nM
21 | CCOc1c([C@@H](C)c2nc(Cl)c3c(N)nccn23)cc(Cl)c(C)c1-c1ccc(Cl)nc1 [Compound 27B] | 500 nM | 
22 | CCOc1c(C(C)c2nc(C)c3c(N)nccn23)cc(F)c(Cl)c1-c1ccc(C(F)(F)F)nc1 (stereo not drawn) [Compound 34, 3-(1-(4-chloro-2-ethoxy-5-fluoro-3-(6-(trifluoromethyl)pyridin-3-yl)phenyl)ethyl)-1-methylimidazo[1,5-a]pyrazin-8-amine] | 43 nM | 
23 | Cc1c(Cl)cc([C@@H](C)c2nc(Br)c3c(N)nccn23)c(OC(C)C)c1-c1ccc(C(F)(F)F)nc1 [Compound 38B] | 2100 nM | 
24 | CC(C)Oc1c([C@@H](C)c2nc(Cl)c3c(N)nccn23)cc(Cl)c(F)c1-c1ccc(C(F)(F)F)nc1 [Compound 40B] | 150 nM | 
25 | CCOc1c([C@@H](C)c2nc(Cl)c3c(N)nccn23)cc(Cl)c(F)c1-c1ccc(C(F)(F)F)nc1 [Compound 41B] | 350 nM | 
26 | CCCOc1c([C@@H](C)c2nc(Cl)c3c(N)nccn23)cc(Cl)c(F)c1-c1ccc(C(F)(F)F)nc1 [Compound 42B] | 330 nM | 
27 | CCOc1c([C@@H](C)c2nc(Cl)c3c(N)nccn23)cc(Cl)c(F)c1-c1ccc(C(F)(F)F)nc1OC [Compound 43B] | > 1000 nM | 
28 | CCOc1c(C(C)c2nc(-c3ccc(OC)cc3)c3c(N)nccn23)cc(Cl)c(C)c1-c1ccc(OC)cc1 (stereo not drawn) [Compound 44, 3-(1-(5-chloro-2-ethoxy-4′-methoxy-6-methyl-[151′-biphenyl]-3-yl)ethyl)-1-(4-methoxyphenyl)imidazo[1,5-a]pyrazin-8-amine] | 380 nM | 
29 | CCOc1c(C(C)c2nc(Cl)c3c(N)nccn23)cc(Cl)c(F)c1C1CCOCC1 (stereo not drawn) [Compound 49, 1-chloro-3-(1-(5-chloro-2-ethoxy-4-fluoro-3-(tetrahydro-2H-pyran-4-yl)phenyl)ethyl)imidazo[1,5-a]pyrazin-8-anine] | 3.1 nM | 
30 | COc1c(C(C)c2nc(C)c3c(N)nccn23)cc(Cl)c(C)c1-c1cccnc1 (stereo not drawn) [Compound 52, 3-(1-(5-chloro-2-methoxy-4-methyl-3-(pyridin-3-yl)phenyl)ethyl)-1-methyl imidazo[1,5-a]pyrazin-8-amine] | 7.7 nM | inhibition at 0.5 µM [2]: -11%; inhibition at 0.5 µM [4]: 6%
31 | COc1c(C(C)c2nc(C3CC3)c3c(N)nccn23)cc(Cl)c(C)c1-c1cccnc1 (stereo not drawn) [Compound 53, 3-(1(5-chloro-2-methoxy-4-methyl-3-(pyridin-3-yl)phenyl)ethyl)-1-cyclopropyl imidazo[1,5-a]pyrazin-8-amine] | 1900 nM | 
32 | Cc1nn(C(C)c2cc(Cl)c(C#N)c(=O)n2-c2ccccc2)c2ncnc(N)c12 (stereo not drawn) [Compound 55, 6-(1-(4-amino-3-methyl-1H-pyrazolo[3,4-d]pyrimidin-1-yl)ethyl)-4-chloro-2-oxo-1-phenyl-1,2-dihydropyridine-3-carbonitrile] | 450 nM | 
